Key:
PC3 (prostate) = test: Cytotoxicity on human cells, automated nuclei counting: PC3; assay type: cell-based; settings: PC-3, exposed 24 h to 48 h, 0.1 to 25 μM
Outline: (§1)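 4.10^3 cells per well were allowed 24 hours to attach, spread and proliferate, then exposed to increasing concentrations of test molecules, with DMSO dilutions (maximum 1% DMSO) as controls. Cultures were kept in DMEM or RPMI with 10% fetal calf serum at 37° C, 5% CO2; cytotoxicity was scored by automated image analysis.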

fibroblast = test: Cytotoxicity on human cells, automated nuclei counting: fibroblast; assay type: cell-based; settings: exposed 24 h to 48 h, 0.1 to 25 μM
Outline: as §1

GSK-3αβ = test: GSK-3 kinase inhibition (GS-1 substrate); settings: read-out: IC50 μM Kinases GSK3, buffer A, 30° C., 15 μM ATP
Caco (colon) = test: Cytotoxicity on human cells, automated nuclei counting: Caco; assay type: cell-based; settings: exposed 24 h to 48 h, 0.1 to 25 μM
Outline: as §1

CDK5/D25 = target: T1, CDK5/D25 (Homo sapiens, UniProt Q00535); test: CDK5 kinase inhibition (33P-ATP, histone H1); assay type: biochemical; settings: buffer C, 30° C., 15 μM ATP, read-out: IC50 μM Kinases CDK5
T1 construct: made in house
Outline: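 Kinase reactions ran in buffer C (25 mM Mops pH 7.2, 15 mM MgCl2, 1 mM DTT, phosphatase inhibitors) with [33P]-ATP for 30 min at 30° C. Phosphorylated substrate was captured on P81 phosphocellulose filters, washed in phosphoric acid and counted by scintillation.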

Huh7 (liver) = test: Cytotoxicity on human cells, automated nuclei counting: Huh7; assay type: cell-based; settings: Huh-7, exposed 24 h to 48 h, 0.1 to 25 μM
Outline: as §1

NCI (lung) = test: Cytotoxicity on human cells, automated nuclei counting: NCI; assay type: cell-based; settings: exposed 24 h to 48 h, 0.1 to 25 μM
Outline: as §1

CDK1/cyclin B = CDK1/cyclin B kinase inhibition (33P-ATP, histone H1); assay type: biochemical, sea star; settings: buffer C, 30° C., 15 μM ATP, read-out: IC50 μM Kinases CDK1
Experimental: The protein kinase inhibition activities of the compounds of the invention are tested according to the following general procedure:
Buffer C: 60 mM β-glycerophosphate, 15 mM p-nitrophenyl-phosphate, 25 mM Mops (pH 7.2), 5 mM EGTA, 15 mM mgCl2, 1 mM DTT, 1 mM sodium vanadate and 1 mM phenylphosphate.
The controls were made with suitable dilutions of DMSO.
ATP (3.000 Ci/mmol.; 10 mCi/mL) in a final volume of 30 μL. After 30 mins of incubation at 30° C., 25 μL of supernatant aliquots were deposited on phosphocellulose Whatman P81 paper pieces of 2.5×3 cm, and after 20 seconds, the filters were washed five times (for at least 5 minutes each time) in a solution of 10 mL of phosphoric acid/1 litre of water. The wet filters were counted in the presence of 1 mL of scintillation fluid ACS (Amersham).

DYRK1A = DYRK1A (Homo sapiens, UniProt Q13627); test: DYRK1A kinase inhibition (Woodtide substrate)
MDA-MB 231 (breast) = test: Cytotoxicity on human cells, automated nuclei counting: MDA-MB 231; assay type: cell-based; settings: MDA-MB 231 cells, exposed 24 h to 48 h, 0.1 to 25 μM
Outline: as §1

HCT 116 (colon) = test: Cytotoxicity on human cells, automated nuclei counting: HCT 116; assay type: cell-based; settings: HCT 116 cells, exposed 24 h to 48 h, 0.1 to 25 μM
Outline: as §1

T1 sequence (Q00535 whole entry): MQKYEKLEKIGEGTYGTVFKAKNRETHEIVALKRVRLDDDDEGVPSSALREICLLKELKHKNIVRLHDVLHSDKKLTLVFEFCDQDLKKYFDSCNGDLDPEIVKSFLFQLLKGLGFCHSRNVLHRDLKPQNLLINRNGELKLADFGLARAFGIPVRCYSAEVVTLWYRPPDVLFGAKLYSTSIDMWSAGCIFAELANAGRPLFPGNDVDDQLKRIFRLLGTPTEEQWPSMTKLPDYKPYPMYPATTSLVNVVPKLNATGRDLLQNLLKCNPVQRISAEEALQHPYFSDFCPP
T1 sequence (Q15078 99-307 partner limits assumed): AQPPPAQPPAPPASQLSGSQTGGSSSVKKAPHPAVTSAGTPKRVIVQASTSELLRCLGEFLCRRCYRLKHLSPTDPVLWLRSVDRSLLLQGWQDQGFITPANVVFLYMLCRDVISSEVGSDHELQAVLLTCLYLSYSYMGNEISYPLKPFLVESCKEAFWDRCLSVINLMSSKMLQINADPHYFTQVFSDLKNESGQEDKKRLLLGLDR

Structure (SMILES)	IC50 (PC3 (prostate))	IC50 (fibroblast)	IC50 (GSK-3αβ)	IC50 (Caco (colon))	IC50 (CDK5/D25)	IC50 (Huh7 (liver))	melting point	IC50 (NCI (lung))	IC50 (CDK1/cyclin B)	IC50 (DYRK1A)	IC50 (MDA-MB 231 (breast))	IC50 (HCT 116 (colon))
O=C(Nc1cc(-c2ccccc2)on1)Nc1cccc2c1C1CCCCN1C2=O (stereo not shown) [Compound 25, 1-(6-oxo-1,2,3,4,6,10b-hexahydropyrido[2,1-a]isoindol-10-yl)-3-(5-phenyl-isoxazol-3-yl)urea]	0.1 µM	0.1 µM	0.27 µM	0.1 µM	1.5 µM	0.25 µM	248 °C	1.5 µM	> 10 µM	> 10000 nM	0.2 µM	0.03 µM
COc1ccc(NC(=O)Nc2cccc3c2C2CCCCN2C3=O)cn1 (stereo not shown) [Compound 96, N-(6-Methoxypyridin-3-yl)-M-(6-oxo-1,2,3,4,6,10b-hexahydropyrido[2,1-a]isoindol-10-yl)urea]	0.6 µM	1.5 µM	0.23 µM	0.8 µM	1.6 µM	0.5 µM	175 °C	0.6 µM	25 µM	–	0.2 µM	0.2 µM
O=C(Nc1cnccn1)Nc1cccc2c1C1CC3(CCN1C2=O)SCCS3 (stereo not shown) [Compound 17, 1-(6′-Oxo-3′,4′,6′,10b′-tetrahydro-1′H-spiro[[1,3]dithiolane-2,2′-pyrido[2,1-a]isoindole]-10′-yl)-3-(pyrazin-2-yl)urea]	0.6 µM	0.8 µM	0.044 µM	0.5 µM	0.15 µM	0.1 µM	236 °C	0.4 µM	0.13 µM	> 10000 nM	0.15 µM	0.1 µM
O=C(Nc1ccccn1)Nc1cccc2c1C1CC3(CCN1C2=O)SCCS3 (stereo not shown) [Compound 16, 1-(6′-oxo-3′,4′,6′,10b′-tetrahydro-1′H-spiro[[1,3]dithiolane-2,2′-pyrido[2,1-a]isoindole]-10′-yl)-3-(pyridin-2-yl)urea]	6 µM	> 25 µM	0.033 µM	15 µM	0.24 µM	15 µM	242 °C	25 µM	0.22 µM	> 10000 nM	20 µM	10 µM
O=C(Nc1cccc(Br)n1)Nc1cccc2c1C1CCCCN1C2=O (stereo not shown) [Compound 19, 1-(6-Bromopyridin-2-yl)-3-(6-oxo-1,2,3,4,6,10b-hexahydropyrido[2,1-a]isoindol-10-yl)urea]	> 25 µM	> 25 µM	0.043 µM	> 25 µM	0.04 µM	> 25 µM	218 to 220 °C	> 25 µM	–	3400 nM	> 25 µM	> 25 µM
O=C1c2cccc(NC(=S)Nc3cccc(Br)n3)c2C2CCCCN12 (stereo not shown) [Compound 67, 1-(6-Bromopyridin-2-yl)-3-(6-oxo-1,2,3,4,6,10b-hexahydropyrido[2,1-a]isoindol-10-yl)thiourea]	8 µM	10 µM	4.5 µM	3 µM	8.1 µM	10 µM	195 °C	12 µM	–	92000 nM	4 µM	2 µM
COC1CCN2C(=O)c3cccc(NC(=O)Nc4cnc(C)cn4)c3C2C1 (stereo not shown) [Compound 59, 1-(2-methoxy-6-oxo-1,2,3,4,6,10b-hexahydropyrido[2,1-a]isoindol-10-yl)-3-(5-methylpyrazin-2-yl)urea]	5 µM	5 µM	0.14 µM	12 µM	0.32 µM	1.2 µM	140 to 142 °C	6 µM	–	> 10000 nM	6 µM	3 µM
O=C1c2cccc(NC(=S)Nc3ncccc3Br)c2C2CC3(CCN12)SCCS3 (stereo not shown) [Compound 74, 1-(3-Bromopyridin-2-yl)-3-(6′-oxo-3′,4′,6′,10b′-tetrahydro-1′H-spiro[[1,3]dithiolane-2,2′-pyrido[2,1-a]isoindole]-10′-yl)thiourea]	15 µM	25 µM	3 µM	20 µM	> 10 µM	10 µM	215 °C	12 µM	–	> 10000 nM	> 25 µM	25 µM
O=C(Nc1cccc(F)n1)Nc1cccc2c1C1CCCCN1C2=O (stereo not shown) [Compound 23, 1-(6-Fluoropyridin-2-yl)-3-(6-oxo-1,2,3,4,6,10b-hexahydropyrido[2,1-a]isoindol-10-yl)urea]	0.03 µM	0.3 µM	0.026 µM	0.03 µM	0.9 µM	0.1 µM	254 °C	0.3 µM	–	3500 nM	0.03 µM	< 0.01 µM
O=C(Nc1cccc2c1C1CCCCN1C2=O)Nc1ncccc1Br (stereo not shown) [Compound 75, 1-(3-Bromopyridin-2-yl)-3-(6-oxo-1,2,3,4,6,10b-hexahydropyrido[2,1-a]isoindol-10-yl)urea]	7 µM	0.6 µM	0.17 µM	5 µM	0.48 µM	0.25 µM	220 °C	2 µM	–	3000 nM	1.5 µM	0.4 µM
O=C(Nc1nc2ccccc2s1)Nc1cccc2c1C1CCCCN1C2=O (stereo not shown) [Compound 34, 1-(Benzo[d]thiazol-2-yl)-3-(6-oxo-1,2,3,4,6,10b-hexahydropyrido[2,1-a]-isoindol-10-yl)urea]	1 µM	2 µM	3.5 µM	0.7 µM	16 µM	0.6 µM	260 °C	4 µM	–	88000 nM	1.5 µM	0.5 µM
Cc1cccc(NC(=O)Nc2cccc3c2C2CC4(CCN2C3=O)OCCO4)n1 (stereo not shown) [Compound 46]	12 µM	20 µM	0.92 µM	10 µM	> 10 µM	12 µM	240 to 242 °C	12 µM	–	> 10000 nM	15 µM	10 µM
O=C(Nc1ncccn1)Nc1cccc2c1C1CCCCN1C2=O (stereo not shown) [Compound 42, 1-(6-oxo-1,2,3,4,6,10b-hexahydro-pyrido[2,1-a]isoindol-10-yl)-3-pyrimidin-2-yl-urea]	2 µM	2.5 µM	0.75 µM	2 µM	> 10 µM	0.6 µM	232 °C	8 µM	–	> 10000 nM	4 µM	4 µM
O=C(Nc1cscn1)Nc1cccc2c1C1CCCCN1C2=O (stereo not shown) [Compound 26, 1-(6-Oxo-1,2,3,4,6,10b-hexahydropyrido[2,1-a]isoindol-10-yl)-3-(thiazol-4-yl)urea]	2 µM	4 µM	0.76 µM	0.8 µM	0.43 µM	1.2 µM	178 to 180 °C	5 µM	–	> 10000 nM	0.4 µM	0.8 µM
